Test results published in ChEMBL document CHEMBL1201862, “PubChem BioAssay data set” (2004).
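96-well plates; 48 h exposure; 5 concentrations. Endpoints by linear interpolation between flanking doses. Not reached: highest tested concentration assigned. The concentration for 50% growth inhibition is given as GI50.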 Activity calls are given as the source filed them. Rule as the data show it: active = GI50 up to about 1.1 µM and inactive = higher.

Key:
Test in all cases: NCI anticancer screen, dose series, 48 h
HCT-15 = tested on: HCT-15
OVCAR-4 = tested on: OVCAR-4
SF-268 = tested on: SF-268
SF-295 = tested on: SF-295
PC-3 = tested on: PC-3
SR = tested on: SR
NCI-H460 = tested on: NCI-H460
786-0 = tested on: 786-0
EKVX = tested on: EKVX
COLO 205 = tested on: COLO 205
NCI/ADR-RES = tested on: NCI/ADR-RES
HCC 2998 = tested on: HCC 2998
NCI-H23 = tested on: NCI-H23
SK-MEL-2 = tested on: SK-MEL-2
KM12 = tested on: KM12
SK-MEL-5 = tested on: SK-MEL-5
IGROV-1 = tested on: IGROV-1
SW-620 = tested on: SW-620
Malme-3M = tested on: Malme-3M
A549 = tested on: A549
HT-29 = tested on: HT-29
UACC-257 = tested on: UACC-257
HOP-62 = tested on: HOP-62
DU-145 = tested on: DU-145
OVCAR-8 = tested on: OVCAR-8
UACC-62 = tested on: UACC-62
SF-539 = tested on: SF-539
HCT-116 = tested on: HCT-116
LOX IMVI = tested on: LOX IMVI
NCI-H226 = tested on: NCI-H226
OVCAR-5 = tested on: OVCAR-5
MOLT-4 = tested on: MOLT-4
SK-MEL-28 = tested on: SK-MEL-28
CCRF-CEM = tested on: CCRF-CEM
UO-31 = tested on: UO-31
MDA-MB-231 = tested on: MDA-MB-231
SNB-19 = tested on: SNB-19
RXF 393 = tested on: RXF 393
T47D = tested on: T47D
HOP-92 = tested on: HOP-92
M14 = tested on: M14
RPMI-8226 = tested on: RPMI-8226
SK-OV-3 = tested on: SK-OV-3
BT-549 = tested on: BT-549
K562 = tested on: K562
MDA-N = tested on: MDA-N
OVCAR-3 = tested on: OVCAR-3
SNB-75 = tested on: SNB-75
A498 = tested on: A498
NCI-H522 = tested on: NCI-H522
MCF7 = tested on: MCF7
MDA-MB-435 = tested on: MDA-MB-435
Hs-578T = tested on: Hs-578T
HL-60 = tested on: HL-60
ACHN = tested on: ACHN
SN12C = tested on: SN12C
TK-10 = tested on: TK-10
U-251 = tested on: U-251
CAKI-1 = tested on: CAKI-1

SMILES: Cc1nn2c(=O)c([N+](=O)[O-])c(/C=C/c3ccccc3)nc2s1
- GI50 (HCT-15): 3.08 µM
- GI50 (OVCAR-4): 10.5 µM (inactive)
- GI50 (SF-268): 3.92 µM (inactive)
- GI50 (SF-295): 17.3 µM (inactive)
- GI50 (PC-3): 4.13 µM (inactive)
- GI50 (SR): 2.43 µM (inactive)
- GI50 (NCI-H460): 5.61 µM (inactive)
- GI50 (786-0): 4.52 µM (inactive)
- GI50 (EKVX): 4.61 µM (inactive)
- GI50 (COLO 205): 5.14 µM (inactive)
- GI50 (NCI/ADR-RES): 3.56 µM (inactive)
- GI50 (HCC 2998): 8.13 µM (inactive)
- GI50 (NCI-H23): 11 µM (inactive)
- GI50 (SK-MEL-2): 3.1 µM (inactive)
- GI50 (KM12): 3.13 µM (inactive)
- GI50 (SK-MEL-5): 3.69 µM (inactive)
- GI50 (IGROV-1): 5.51 µM (inactive)
- GI50 (SW-620): 5.24 µM (inactive)
- GI50 (Malme-3M): 13.3 µM (inactive)
- GI50 (A549): 5.46 µM (inactive)
- GI50 (HT-29): 3.04 µM (inactive)
- GI50 (UACC-257): 8.57 µM (inactive)
- GI50 (HOP-62): 5.43 µM (inactive)
- GI50 (DU-145): 3.74 µM (inactive)
- GI50 (OVCAR-8): 2.17 µM (inactive)
- GI50 (UACC-62): 5.33 µM (inactive)
- GI50 (SF-539): 2.3 µM (inactive)
- GI50 (HCT-116): 3.42 µM (inactive)
- GI50 (LOX IMVI): 1.57 µM (inactive)
- GI50 (NCI-H226): 3.07 µM (inactive)
- GI50 (OVCAR-5): 4.68 µM (inactive)
- GI50 (MOLT-4): 2.98 µM (inactive)
- GI50 (SK-MEL-28): 5.33 µM (inactive)
- GI50 (CCRF-CEM): 2.21 µM (inactive)
- GI50 (UO-31): 5.83 µM (inactive)
- GI50 (MDA-MB-231): 11.5 µM (inactive)
- GI50 (SNB-19): 4.06 µM (inactive)
- GI50 (RXF 393): 3.41 µM (inactive)
- GI50 (T47D): 3.72 µM (inactive)
- GI50 (HOP-92): 8.28 µM (inactive)
- GI50 (M14): 6.81 µM (inactive)
- GI50 (RPMI-8226): 2.43 µM (inactive)
- GI50 (SK-OV-3): 7.33 µM (inactive)
- GI50 (BT-549): 2.37 µM (inactive)
- GI50 (K562): 2.56 µM (inactive)
- GI50 (MDA-N): 2.4 µM (inactive)
- GI50 (OVCAR-3): 4.95 µM (inactive)
- GI50 (SNB-75): 2.93 µM (inactive)
- GI50 (A498): 10.4 µM (inactive)
- GI50 (NCI-H522): 3.3 µM (inactive)
- GI50 (MCF7): 1.61 µM (inactive)
- GI50 (MDA-MB-435): 2 µM (inactive)
- GI50 (Hs-578T): 7.33 µM (inactive)
- GI50 (HL-60): 2.28 µM (inactive)
- GI50 (ACHN): 5.32 µM (inactive)
- GI50 (SN12C): 5.27 µM (inactive)
- GI50 (TK-10): 7.31 µM (inactive)
- GI50 (U-251): 2.42 µM (inactive)
- GI50 (CAKI-1): 7.78 µM (inactive)

SMILES: CN1CN(c2ccccc2)C2(CCNCC2)C1=O
- GI50 (HCT-15): > 100 µM
- GI50 (OVCAR-4): > 100 µM (inactive)
- GI50 (SF-268): > 100 µM (inactive)
- GI50 (SF-295): > 100 µM (inactive)
- GI50 (PC-3): > 100 µM (inactive)
- GI50 (SR): > 100 µM (inactive)
- GI50 (NCI-H460): > 100 µM (inactive)
- GI50 (786-0): > 100 µM (inactive)
- GI50 (EKVX): > 100 µM (inactive)
- GI50 (COLO 205): > 100 µM (inactive)
- GI50 (NCI/ADR-RES): > 100 µM (inactive)
- GI50 (HCC 2998): > 100 µM (inactive)
- GI50 (NCI-H23): > 100 µM (inactive)
- GI50 (SK-MEL-2): > 100 µM (inactive)
- GI50 (KM12): > 100 µM (inactive)
- GI50 (SK-MEL-5): > 100 µM (inactive)
- GI50 (IGROV-1): > 100 µM (inactive)
- GI50 (SW-620): > 100 µM (inactive)
- GI50 (Malme-3M): > 100 µM (inactive)
- GI50 (A549): > 100 µM (inactive)
- GI50 (HT-29): > 100 µM (inactive)
- GI50 (UACC-257): > 100 µM (inactive)
- GI50 (HOP-62): > 100 µM (inactive)
- GI50 (DU-145): > 100 µM (inactive)
- GI50 (OVCAR-8): > 100 µM (inactive)
- GI50 (UACC-62): > 100 µM (inactive)
- GI50 (SF-539): > 100 µM (inactive)
- GI50 (HCT-116): > 100 µM (inactive)
- GI50 (LOX IMVI): > 100 µM (inactive)
- GI50 (NCI-H226): > 100 µM (inactive)
- GI50 (OVCAR-5): > 100 µM (inactive)
- GI50 (MOLT-4): > 100 µM (inactive)
- GI50 (SK-MEL-28): > 100 µM (inactive)
- GI50 (CCRF-CEM): > 100 µM (inactive)
- GI50 (UO-31): > 100 µM (inactive)
- GI50 (MDA-MB-231): > 100 µM (inactive)
- GI50 (SNB-19): > 100 µM (inactive)
- GI50 (RXF 393): > 100 µM (inactive)
- GI50 (T47D): > 100 µM (inactive)
- GI50 (HOP-92): > 100 µM (inactive)
- GI50 (M14): > 100 µM (inactive)
- GI50 (RPMI-8226): > 100 µM (inactive)
- GI50 (SK-OV-3): > 100 µM (inactive)
- GI50 (BT-549): > 100 µM (inactive)
- GI50 (K562): > 100 µM (inactive)
- GI50 (MDA-N): > 100 µM (inactive)
- GI50 (OVCAR-3): > 100 µM (inactive)
- GI50 (SNB-75): > 100 µM (inactive)
- GI50 (A498): > 100 µM (inactive)
- GI50 (NCI-H522): > 100 µM (inactive)
- GI50 (MCF7): > 100 µM (inactive)
- GI50 (MDA-MB-435): > 100 µM (inactive)
- GI50 (Hs-578T): > 100 µM (inactive)
- GI50 (HL-60): > 100 µM (inactive)
- GI50 (ACHN): > 100 µM (inactive)
- GI50 (SN12C): > 100 µM (inactive)
- GI50 (TK-10): > 100 µM (inactive)
- GI50 (U-251): > 100 µM (inactive)
- GI50 (CAKI-1): > 100 µM (inactive)

SMILES: S=C(N/N=C(\c1ccccc1)c1ccccn1)NC1CCCCC1
- GI50 (HCT-15): 1.02 µM
- GI50 (OVCAR-4): 7.91 µM (inactive)
- GI50 (SF-268): 2.66 µM (inactive)
- GI50 (SF-295): 26.5 µM (inactive)
- GI50 (PC-3): 1.4 µM (inactive)
- GI50 (SR): > 26.1 µM (inactive)
- GI50 (NCI-H460): 3.36 µM (inactive)
- GI50 (786-0): 18 µM (inactive)
- GI50 (EKVX): 1.4 µM (inactive)
- GI50 (COLO 205): 0.543 µM (active)
- GI50 (NCI/ADR-RES): 0.423 µM (active)
- GI50 (HCC 2998): > 61.4 µM (inactive)
- GI50 (NCI-H23): 1.6 µM (inactive)
- GI50 (SK-MEL-2): > 94.6 µM (inactive)
- GI50 (KM12): 13.1 µM (inactive)
- GI50 (SK-MEL-5): 13.1 µM (inactive)
- GI50 (IGROV-1): 0.31 µM (active)
- GI50 (SW-620): 1.19 µM (inactive)
- GI50 (Malme-3M): 1.32 µM (inactive)
- GI50 (A549): 13.9 µM (inactive)
- GI50 (HT-29): 0.274 µM (active)
- GI50 (UACC-257): 2.24 µM (inactive)
- GI50 (HOP-62): 12.2 µM (inactive)
- GI50 (DU-145): 29.3 µM (inactive)
- GI50 (OVCAR-8): 0.34 µM (active)
- GI50 (UACC-62): > 29.8 µM (inactive)
- GI50 (SF-539): 3.08 µM (inactive)
- GI50 (HCT-116): 0.566 µM (active)
- GI50 (LOX IMVI): 2.61 µM (inactive)
- GI50 (NCI-H226): 3.85 µM (inactive)
- GI50 (OVCAR-5): > 88.1 µM (inactive)
- GI50 (MOLT-4): 0.54 µM (active)
- GI50 (SK-MEL-28): 46.1 µM (inactive)
- GI50 (CCRF-CEM): 0.322 µM (active)
- GI50 (UO-31): 12.9 µM (inactive)
- GI50 (MDA-MB-231): 1.57 µM (inactive)
- GI50 (SNB-19): 39.7 µM (inactive)
- GI50 (RXF 393): > 100 µM (inactive)
- GI50 (T47D): 3.48 µM (inactive)
- GI50 (HOP-92): > 100 µM (inactive)
- GI50 (M14): 1.16 µM (inactive)
- GI50 (RPMI-8226): 2.16 µM (inactive)
- GI50 (SK-OV-3): 11.5 µM (inactive)
- GI50 (BT-549): 23.4 µM (inactive)
- GI50 (K562): 0.5 µM (active)
- GI50 (MDA-N): 78.7 µM (inactive)
- GI50 (OVCAR-3): 2.75 µM (inactive)
- GI50 (SNB-75): 65.3 µM (inactive)
- GI50 (A498): > 100 µM (inactive)
- GI50 (NCI-H522): 1.94 µM (inactive)
- GI50 (MCF7): 0.433 µM (active)
- GI50 (MDA-MB-435): 31.6 µM (inactive)
- GI50 (Hs-578T): > 35 µM (inactive)
- GI50 (HL-60): 0.16 µM (active)
- GI50 (ACHN): 0.571 µM (active)
- GI50 (SN12C): 0.804 µM (active)
- GI50 (TK-10): 0.849 µM (active)
- GI50 (U-251): 0.979 µM (active)
- GI50 (CAKI-1): 0.834 µM (active)
